Values of other authors as cited in patent US9255091B2, “Benzothiazole-based pyridinium compounds” (The University of Montana, priority 2011, dated 2016).

Target: AChE P-site (Homo sapiens (Human), UniProt P22303)
Conditions: binds selectively to the AChE P-site; read-out: equilibrium dissociation constant

AChE P-site, sequence (P22303 32-614 limits assumed): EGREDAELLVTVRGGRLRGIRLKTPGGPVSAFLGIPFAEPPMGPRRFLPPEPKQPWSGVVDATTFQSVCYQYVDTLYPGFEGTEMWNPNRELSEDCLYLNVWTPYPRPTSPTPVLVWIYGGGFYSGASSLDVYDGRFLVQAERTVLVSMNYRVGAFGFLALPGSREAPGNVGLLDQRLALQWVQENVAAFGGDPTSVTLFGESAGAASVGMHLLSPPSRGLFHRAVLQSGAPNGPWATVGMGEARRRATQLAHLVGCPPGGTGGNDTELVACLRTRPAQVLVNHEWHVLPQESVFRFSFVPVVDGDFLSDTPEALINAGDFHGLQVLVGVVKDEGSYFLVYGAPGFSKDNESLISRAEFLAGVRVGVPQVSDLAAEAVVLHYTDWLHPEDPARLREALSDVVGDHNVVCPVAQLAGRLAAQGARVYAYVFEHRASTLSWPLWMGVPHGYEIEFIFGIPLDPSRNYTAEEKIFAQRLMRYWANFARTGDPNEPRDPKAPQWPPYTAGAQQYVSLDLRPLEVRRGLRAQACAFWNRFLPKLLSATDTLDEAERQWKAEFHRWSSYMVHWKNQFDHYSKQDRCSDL

## Cc1ccc2c(c1)sc(-c1ccc(N(C)C)cc1)[n+]2C [Thioflavin T]
  Kd: 1000 nM
